Experiments:
Experiment in all cases: relative viability (nuclei count vs DMSO), 5 days (fraction); higher = more cells survive
[1] = compound: C1=CC2=NC=CN=C2C=C1/C=C/3\C(=O)NC(=O)S3 + C[C@]1(O)C[C@@H](c2nc(-c3ccc4ccc(-c5ccccc5)nc4c3)c3c(N)nccn32)C1 [Linsitinib] (partner 1 µM)
Outline: (§1)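 Values are medians from duplicate plates. Each reflects relative viability, defined as the nuclei count of treated wells over that of vehicle wells. Lung cancer cell lines in 1536-well plates were pin-tool dosed one day after seeding with one drug alone or with a fixed anchor-drug dose plus five library-drug doses (not always all listed) in √10 steps, then fixed, stained and imaged at 4× after 5 days.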

[2] = compound: CCN1CCN(c2ccc(Nc3cc(N(C)C(=O)Nc4c(Cl)c(OC)cc(OC)c4Cl)ncn3)cc2)CC1 [BGJ398] + C[C@@H](Oc1cc(-c2cnn(C3CCNCC3)c2)cnc1N)c1c(Cl)ccc(F)c1Cl [Crizotinib] (partner 1 µM)
Outline: as §1

[3] = compound: CCN1CCN(c2ccc(Nc3cc(N(C)C(=O)Nc4c(Cl)c(OC)cc(OC)c4Cl)ncn3)cc2)CC1 [BGJ398] + Nc1nc2[nH]cc(CCc3ccc(C(=O)N[C@@H](CCC(=O)O)C(=O)O)cc3)c2c(=O)[nH]1 [Pemetrexed] (partner 0.2 µM)
Outline: as §1

[4] = compound: CCN1CCN(c2ccc(Nc3cc(N(C)C(=O)Nc4c(Cl)c(OC)cc(OC)c4Cl)ncn3)cc2)CC1 [BGJ398] + O=C(c1cc(Cc2n[nH]c(=O)c3ccccc23)ccc1F)N1CCN(C(=O)C2CC2)CC1 [Olaparib] (partner 8 µM)
Outline: as §1

Cell Line | relative viability ([1]; first compound 0.02 µM) | relative viability ([1]; first compound 0.06325 µM) | relative viability ([1]; first compound 0.2 µM) | relative viability ([1]; first compound 0.6325 µM) | relative viability ([1]; first compound 2 µM) | relative viability ([2]; first compound 0.03162 µM) | relative viability ([2]; first compound 0.1 µM) | relative viability ([2]; first compound 0.3162 µM) | relative viability ([2]; first compound 1 µM) | relative viability ([3]; first compound 0.01 µM) | relative viability ([3]; first compound 0.03162 µM) | relative viability ([3]; first compound 0.1 µM) | relative viability ([3]; first compound 0.3162 µM) | relative viability ([3]; first compound 1 µM) | relative viability ([4]; first compound 0.01 µM) | relative viability ([4]; first compound 0.03162 µM) | relative viability ([4]; first compound 0.1 µM) | relative viability ([4]; first compound 0.3162 µM) | relative viability ([4]; first compound 1 µM) | relative viability ([2]; first compound 0.01 µM)
NCI-H661 | 0.59 | 0.501 | 0.606 | 0.583 | 0.56 | 0.94 | 0.926 | 0.983 | 0.916 | 0.912 | 0.877 | 0.961 | 0.977 | 0.912 | 0.7 | 0.737 | 0.822 | 0.736 | 0.727 | –
HCC-15 | 0.824 | 0.868 | 0.912 | 0.861 | 0.885 | 0.825 | 0.782 | 0.885 | 0.9 | 0.262 | 0.232 | 0.219 | 0.223 | 0.221 | 0.699 | 0.749 | 0.712 | 0.732 | 0.725 | 0.861
LCLC-103H | 1.05 | 0.799 | 1.03 | 0.976 | 1.08 | 1.03 | 1.03 | 0.96 | 0.827 | 0.459 | 0.503 | 0.401 | 0.494 | 0.541 | 0.756 | 0.787 | 0.726 | 0.717 | 0.596 | 1.02
NCI-H441 | 0.473 | 0.399 | 0.653 | 0.57 | 0.508 | 0.841 | 0.778 | 0.691 | 0.783 | – | 0.234 | 0.243 | 0.251 | 0.288 | – | 0.619 | 0.483 | 0.555 | 0.536 | 0.601
EPLC-272H | 1.09 | 1.25 | 1.25 | 1.1 | 1.26 | 0.814 | 0.964 | 0.8 | 0.968 | 0.32 | 0.447 | 0.317 | 0.289 | 0.418 | 0.626 | 0.829 | 0.594 | 0.797 | 0.656 | 0.903

— the supplement of paper PMC10307832
